Measured values as given in PubChem BioAssay AID1259411 (Chemical Carcinogenesis Research Information System (CCRIS), 2018).
Active and inactive are the calls of the source. No rule for the calls is given here.

Tested on: rodent carcinogenicity bioassays, tumor incidence
Assay: CCRIS carcinogenicity studies
Procedure, shortened: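 Archive of carcinogenicity, mutagenicity, tumor promotion and tumor inhibition results drawn from journals, NCI reports and other sources, expert-reviewed; covers 1985-2011 and is no longer updated.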

SMILES: C/C=C/c1ccc(OC)cc1
- carcinogen call (Species: MOUSE, Strain/Sex: B6C3F1/MALE, Route: INTRAPERITONEAL, Dose: 0, 0.5 UMOL/G BW ONCE (STUDY DURATION: 10-11 MONTHS)): inactive; negative
- carcinogen call (Species: MOUSE, Strain/Sex: CD-1/FEMALE, Route: DERMAL, Dose: 0, 5 UMOL 1X/WK FOR 3 WK BEGINNING 24 HR POST FIRST TPA DOSE (2.5 UG IN 0.1 ML ACETONE), FOLLOWED BY 2.5 UG TPA IN 0.1 M, Tumor Site: Type of Lesion: SKIN: PAPILLOMA): inactive; negative
- carcinogen call (Species: RAT, Strain/Sex: SPRAGUE-DAWLEY/FEMALE, Route: ORAL, Dose: 0, 0.25, 0.5, 1% IN DIET FOR 117 WK (STUDY DURATION: 121 WK), Dose: 0, 0.25, 0.5, 1% IN DIET FOR 117 WK (STUDY DURATION: 121 WK), Tumor Site: Type of Lesion: LIVER: HEPTOCELLULAR CARCINOMA): active; positive
- carcinogen call (Species: RAT, Strain/Sex: SPRAGUE-DAWLEY/MALE, Route: ORAL, Dose: 0, 0.25, 0.5, 1.0% IN DIET FOR 117 WK (STUDY DURATION: 121 WK), Dose: 0, 0.25, 0.5, 1.0% IN DIET FOR 117 WK (STUDY DURATION: 121 WK)): inactive; negative

SMILES: CCNC(=S)NCC
- carcinogen call (Species: MOUSE, Strain/Sex: B6C3F1/FEMALE, Route: ORAL, Dose: 0, 250, 500 PPM IN DIET, Dose: 0, 250, 500 PPM IN DIET): inactive; negative
- carcinogen call (Species: MOUSE, Strain/Sex: B6C3F1/MALE, Route: ORAL, Dose: 0, 250, 500 PPM IN DIET, Dose: 0, 250, 500 PPM IN DIET): inactive; negative
- carcinogen call (Species: RAT, Strain/Sex: F344/FEMALE, Route: ORAL, Dose: 0, 125, 250 PPM IN DIET, Dose: 0, 125, 250 PPM IN DIET, Tumor Site: Type of Lesion: THYROID GLAND: FOLLICULAR CELL CARCINOMA OR FOLLICULAR CELL ADENOMA): active; positive
- carcinogen call (Species: RAT, Strain/Sex: F344/MALE, Route: ORAL, Dose: 0, 125, 250 PPM IN DIET, Dose: 0, 125, 250 PPM IN DIET, Tumor Site: Type of Lesion: THYROID GLAND: FOLLICULAR CELL CARCINOMA OR FOLLICULAR CELL ADENOMA): active; positive

SMILES: O=NN(CCCC(F)(F)F)CCCC(F)(F)F
- carcinogen call (Species: RAT, Strain/Sex: SPRAGUE-DAWLEY/MALE,FEMALE, Route: GAVAGE, Dose: 1.5, 7.5% IN VEGETABLE OIL 2/WK FOR UP TO 32 WK, Tumor Site: Type of Lesion: LIVER: HEPATOCELLULAR CARCINOMA, LUNG: SQUAMOUS CELL CARCINOMA, ADENOCARCINOMA): active; positive

SMILES: C=CCOC(Cn1ccnc1)c1ccc(Cl)cc1Cl (centres undefined)
- carcinogen call (Species: Mouse, Strain/Sex: Swiss/Female (50/Group), Route: Oral, Dose: 0, 50, 200, 600 ppm 93% imazalil in diet in 50:50 Aerosil:corn starch for 2 yr, study duration 2 yr, Dose: 0, 50, 200, 600 ppm 93% imazalil in diet in 50:50 Aerosil:corn starch for 2 yr, study duration 2 yr, Tumor Site: Type of Lesion: Liver: hepatocytic neoplasms): active; positive
- carcinogen call (Species: Mouse, Strain/Sex: Swiss/Male (50/Group), Route: Oral, Dose: 0, 50, 200, 600 ppm 93% imazalil in diet in 50:50 Aerosil:corn starch for 2 yr, study duration 2 yr, Dose: 0, 50, 200, 600 ppm 93% imazalil in diet in 50:50 Aerosil:corn starch for 2 yr, study duration 2 yr, Tumor Site: Type of Lesion: Liver: hepatocytic neoplasms): active; positive
- carcinogen call (Species: Rat, Strain/Sex: Cpb:WU/Female (20/Group), Route: Oral, Dose: 0, 25, 100, 400 ppm 98.1% imazalil in diet for 18 mo, study duration 18 mo, Dose: 0, 25, 100, 400 ppm 98.1% imazalil in diet for 18 mo, study duration 18 mo): inactive; negative
- carcinogen call (Species: Rat, Strain/Sex: Cpb:WU/Male (20/Group), Route: Oral, Dose: 0, 25, 100, 400 ppm 98.1% imazalil in diet for 18 mo, study duration 18 mo, Dose: 0, 25, 100, 400 ppm 98.1% imazalil in diet for 18 mo, study duration 18 mo): inactive; negative

SMILES: COc1ccc(C(c2ccc(OC)cc2)C(Cl)(Cl)Cl)cc1
- carcinogen call (Species: MOUSE, Strain/Sex: B6C3F1/FEMALE, Route: ORAL, Dose: 0, 997, 1994 PPM IN DIET, TWA, Dose: 0, 997, 1994 PPM IN DIET, TWA): inactive; negative
- carcinogen call (Species: MOUSE, Strain/Sex: B6C3F1/MALE, Route: ORAL, Dose: 0, 1746, 3491 PPM IN DIET, TWA, Dose: 0, 1746, 3491 PPM IN DIET, TWA): inactive; negative
- carcinogen call (Species: MOUSE, Strain/Sex: BALB/MALE, Route: ORAL, Dose: 750 PPM IN DIET, Tumor Site: Type of Lesion: TESTES: INTERSTITIAL CELL CARCINOMA): active; positive
- carcinogen call (Species: RAT, Strain/Sex: OSBORNE-MENDEL/FEMALE, Route: ORAL, Dose: 0, 750, 1385 PPM IN DIET, TWA, Dose: 0, 750, 1385 PPM IN DIET, TWA): inactive; negative
- carcinogen call (Species: RAT, Strain/Sex: OSBORNE-MENDEL/MALE, Route: ORAL, Dose: 0, 448, 845 PPM IN DIET, TWA, Dose: 0, 448, 845 PPM IN DIET, TWA): inactive; negative

SMILES: Nc1ccc(/C=C/c2ccc(N)c(S(=O)(=O)O)c2)c(S(=O)(=O)O)c1
- carcinogen call (Species: MOUSE, Strain/Sex: B6C3F1/FEMALE, Route: ORAL, Dose: 0, 6250, 12500 PPM IN DIET FOR 103 WK (STUDY DURATION: 2 YR), Dose: 0, 6250, 12500 PPM IN DIET FOR 103 WK (STUDY DURATION: 2 YR)): inactive; negative
- carcinogen call (Species: MOUSE, Strain/Sex: B6C3F1/MALE, Route: ORAL, Dose: 0, 6250, 12500 PPM IN DIET FOR 103 WK (STUDY DURATION: 2 YR), Dose: 0, 6250, 12500 PPM IN DIET FOR 103 WK (STUDY DURATION: 2 YR)): inactive; negative
- carcinogen call (Species: RAT, Strain/Sex: F344/FEMALE, Route: ORAL, Dose: 0, 12500, 25000 PPM IN DIET FOR 103 WK (STUDY DURATION: 2 YR), Dose: 0, 12500, 25000 PPM IN DIET FOR 103 WK (STUDY DURATION: 2 YR)): inactive; negative
- carcinogen call (Species: RAT, Strain/Sex: F344/MALE, Route: ORAL, Dose: 0, 12500, 25000 PPM IN DIET FOR 103 WK (STUDY DURATION: 2 YR), Dose: 0, 12500, 25000 PPM IN DIET FOR 103 WK (STUDY DURATION: 2 YR)): inactive; negative

SMILES: CCCCCCCCCCCCCCN(C)N=O
- carcinogen call (Species: RAT, Strain/Sex: F344/MALE, Route: GAVAGE, Dose: 0, 140 MG/ML IN CORN OIL 2/WK FOR 30 WK, STUDY DURATION: 110 WK, Dose: 0, 140 MG/ML IN CORN OIL 2/WK FOR 30 WK, STUDY DURATION: 110 WK, Tumor Site: Type of Lesion: BLADDER): active; positive

SMILES: C[C@]12CC[C@@H]3C4=C(CC[C@H]3[C@@H]1CCC2=O)C(=O)C(=O)C=C4
- carcinogen call (Species: RAT, Strain/Sex: STRAIN-CD/FEMALE, Route: INJECTION, Dose: 0, 30 UMOL (TOTAL DOSE) 1/6 INJECTED UNDER EACH OF 3 THORACIC AND 3 INGUINAL NIPPLES ONCE (STUDY DURATION: 44 WK)): inactive; negative

SMILES: COC(=O)[C@H]1[C@H]2C[C@@H]3c4[nH]c5cc(OC)ccc5c4CCN3C[C@H]2C[C@@H](OC(=O)c2cc(OC)c(OC)c(OC)c2)[C@@H]1OC
- carcinogen call (Species: MOUSE, Strain/Sex: B6C3F1/FEMALE, Route: ORAL, Dose: 0, 5, 10 PPM IN DIET FOR 103 WK (STUDY DURATION: 105 WK), Dose: 0, 5, 10 PPM IN DIET FOR 103 WK (STUDY DURATION: 105 WK), Tumor Site: Type of Lesion: MAMMARY GLAND: MALIGNANT TUMOR): active; positive
- carcinogen call (Species: MOUSE, Strain/Sex: B6C3F1/MALE, Route: ORAL, Dose: 0, 5, 10 PPM IN DIET FOR 103 WK (STUDY DURATION: 105 WK), Dose: 0, 5, 10 PPM IN DIET FOR 103 WK (STUDY DURATION: 105 WK), Tumor Site: Type of Lesion: SEMINAL VESICLES: CARCINOMA): active; positive
- carcinogen call (Species: RAT, Strain/Sex: F344/FEMALE, Route: ORAL, Dose: 0, 5, 10 PPM IN DIET FOR 103 WK (STUDY DURATION: 105 WK), Dose: 0, 5, 10 PPM IN DIET FOR 103 WK (STUDY DURATION: 105 WK)): inactive; negative
- carcinogen call (Species: RAT, Strain/Sex: F344/MALE, Route: ORAL, Dose: 0, 5, 10 PPM IN DIET FOR 103 WK (STUDY DURATION: 105 WK), Dose: 0, 5, 10 PPM IN DIET FOR 103 WK (STUDY DURATION: 105 WK), Tumor Site: Type of Lesion: ADRENAL GLAND: MALIGNANT PHEOCHROMOCYTOMA OR PHEOCHROMOCYTOMA): active; positive

SMILES: O=NC(=O)CCNCCO
- carcinogen call (Species: RAT, Strain/Sex: F344/FEMALE, Route: ORAL, Dose: 0, 50 MG/L DRINKING WATER 5 D/WK FOR 50 WK (TOTAL DOSE 250 MG) (STUDY DURATION: LIFESPAN), Tumor Site: Type of Lesion: ESOPHAGUS: CARCINOMA, PAPILLOMA, TONGUE: CARCINOMA, PAPILLOMA): active; positive
